≈ marks a conversion by molar mass, not a printed value.
Tests used:
[1] = Therapeutic index, ratio of IC50 for cytotoxicity against mouse 3T3-L1 cells to EC50 for anti-adipogenic in mouse 3T3-L1 cells; type: toxicity, cell-based; conditions: read-out: Ratio IC50/EC50
[2] = test system: 3T3-L1; test: Anti-adipogenic activity in mouse 3T3-L1 cells assessed as lipid-lowering activity measured after 9 days by Oil Red O staining based microplate reader analysis; type: functional, cell-based; conditions: 3T3-L1, 216 h
[3] = Cytotoxicity against mouse 3T3-L1 cells assessed as reduction in cell viability incubated for 24 hrs by Sulforhodamine B assay; type: toxicity, cell-based
[4] = test system: 3T3-L1; test: Anti-adipogenic activity in mouse 3T3-L1 cells assessed as lipid-lowering activity at 1 uM measured after 9 days by Oil Red O staining based microplate reader analysis relative to control; type: functional; conditions: time 9 day
[5] = Half life in Sprague-Dawley rat at 2 mg/kg, iv administered for 24 hrs by LC-MS/MS analysis; type: ADME, organism-based; conditions: in vivo
[6] = AUC (0 to infinity) in Sprague-Dawley rat at 5 mg/kg, po administered for 24 hrs by LC-MS/MS analysis; type: ADME, organism-based; conditions: in vivo
[7] = Apparent volume of distribution during terminal phase in Sprague-Dawley rat at 2 mg/kg, iv administered for 24 hrs by LC-MS/MS analysis; type: ADME, organism-based; conditions: in vivo
[8] = AUC (0 to t) in Sprague-Dawley rat at 2 mg/kg, iv administered for 24 hrs by LC-MS/MS analysis; type: ADME, organism-based; conditions: in vivo
[9] = Oral bioavailability (0 to infinity) in Sprague-Dawley rat at 5 mg/kg administered for 24 hrs by LC-MS/MS analysis; type: ADME, organism-based; conditions: in vivo
[10] = Aqueous solubility of compound incubated for 24 hrs by HPLC analysis; type: physicochemical; conditions: aqueous medium
[11] = Half life in Sprague-Dawley rat at 5 mg/kg, po administered for 24 hrs by LC-MS/MS analysis; type: ADME, organism-based; conditions: in vivo
[12] = AUC (0 to t) in Sprague-Dawley rat at 5 mg/kg, po administered for 24 hrs by LC-MS/MS analysis; type: ADME, organism-based; conditions: in vivo
[13] = MRT (0 to t) in Sprague-Dawley rat at 2 mg/kg, iv administered for 24 hrs by LC-MS/MS analysis; type: ADME, organism-based; conditions: in vivo
[14] = AUC (0 to infinity) in Sprague-Dawley rat at 2 mg/kg, iv administered for 24 hrs by LC-MS/MS analysis; type: ADME, organism-based; conditions: in vivo
[15] = Apparent volume of distribution during terminal phase in Sprague-Dawley rat at 5 mg/kg, po administered for 24 hrs by LC-MS/MS analysis; type: ADME, organism-based; conditions: in vivo, read-out: Vz/F
[16] = Apparent oral clearance in Sprague-Dawley rat at 5 mg/kg, po administered for 24 hrs by LC-MS/MS analysis; type: ADME, organism-based; conditions: in vivo
[17] = Tmax in Sprague-Dawley rat at 5 mg/kg, po administered for 24 hrs by LC-MS/MS analysis; type: ADME, organism-based; conditions: in vivo
[18] = Cmax in Sprague-Dawley rat at 5 mg/kg, po administered for 24 hrs by LC-MS/MS analysis; type: ADME, organism-based; conditions: in vivo
[19] = MRT (0 to t) in Sprague-Dawley rat at 5 mg/kg, po administered for 24 hrs by LC-MS/MS analysis; type: ADME, organism-based; conditions: in vivo
[20] = Oral bioavailability (0 to t) in Sprague-Dawley rat at 5 mg/kg administered for 24 hrs by LC-MS/MS analysis; type: ADME, organism-based; conditions: in vivo

SMILES | selectivity ratio [1] | EC50 [2] | IC50 at 24 h [3] | Activity [4] | also measured
CC(=O)c1c(-c2ncc(F)c(NCCN3CCCC3)n2)[nH]c2ccccc12 | 208 | 0.18 µM | 37.4 µM | 102.6% | –
CC(=O)c1c(-c2nc(O)cc(NCCCN(C)C)n2)[nH]c2ccccc12 | – | – | – | -3.1% | –
CC(=O)c1c(-c2nc(C)cc(NCCN3CCCC3)n2)[nH]c2ccccc12 | 202 | 0.089 µM | 18.1 µM | 98.3% | –
COc1cnc(-c2[nH]c3ccccc3c2C(C)=O)nc1NCCN1CCCC1 | – | – | – | 48.3% | –
CC(=O)c1c(-c2nc(NCCN3CCCC3)c3ncn(C)c3n2)[nH]c2ccccc12 | 222 | 0.295 µM | 65.5 µM | 99.5% | –
CC(=O)c1c(-c2nc3c(c(NCCCN(C)C)n2)CCCC3)[nH]c2ccccc12 | – | – | – | 28% | –
COc1cnc(-c2[nH]c3ccccc3c2C(C)=O)nc1NCCCN(C)C | – | – | – | 54.4% | –
CC(=O)c1c(-c2nc(NCCN3CCCC3)cc(-c3ccccc3)n2)[nH]c2ccccc12 | – | – | – | 5.9% | –
CCc1cc(NCCN2CCCC2)nc(-c2[nH]c3ccccc3c2C(C)=O)n1 | – | – | – | 58.5% | –
CC(=O)c1c(-c2nc(NCCCN(C)C)cc(-c3cccnc3)n2)[nH]c2ccccc12 | – | – | – | 48.2% | –
CC(=O)c1c(-c2nc(NCCN3CCCC3)c3ccccc3n2)[nH]c2ccccc12 | 190 | 0.045 µM | 8.49 µM | 99.5% | half-life [5]: 12.4 h; AUC(0-inf) [6]: 0.616 µg·h/mL; Vz/F [7]: 47.8 L/kg; AUC(0-t) at 24 h [8]: 0.603 µg·h/mL; bioavailability [9]: 32.9%; solubility at 24 h [10]: 8 µg/mL (≈ 20 µM); half-life [11]: 6.5 h; AUC(0-t) at 24 h [12]: 0.574 µg·h/mL; MRT last at 24 h [13]: 14 h; AUC(0-inf) [14]: 0.749 µg·h/mL; Vd/F [15]: 77.8 L/kg; CL/F [16]: 8.2 L/h/kg; Tmax [17]: 1.2 h; Cmax [18]: 0.0637 µg/mL; MRT last at 24 h [19]: 9.1 h; bioavailability [20]: 38.1%
COc1cnc(-c2[nH]c3ccccc3c2C(C)=O)nc1NCCCN1CCCC1 | – | – | – | 49.7% | –
CC(=O)c1c(-c2nc(C)cc(NCCCN(C)C)n2)[nH]c2ccccc12 | 151 | 0.225 µM | 33.9 µM | 99.8% | –
CC(=O)c1c(-c2nc(NCCCN(C)C)c3ncn(C)c3n2)[nH]c2ccccc12 | 187 | 0.309 µM | 57.7 µM | 99.9% | –
CC(=O)c1c(-c2ncc(C)c(NCCCN(C)C)n2)[nH]c2ccccc12 | 254 | 0.127 µM | 32.2 µM | 101.8% | –
CC(=O)c1c(-c2nc(NCCN3CCCC3)c3cccnc3n2)[nH]c2ccccc12 | – | – | – | 16.8% | –

SMILES | selectivity ratio [1] | EC50 [2] | IC50 at 24 h [3] | Activity [4] | also measured
CC(=O)c1c(-c2nc(NCCCN(C)C)cc(C(F)(F)F)n2)[nH]c2ccccc12 | – | – | – | 15.5% | –
CC(=O)c1c(-c2ncc(F)c(NCCCN(C)C)n2)[nH]c2ccccc12 | – | – | – | 58% | –
CC(=O)c1c(-c2nc(NCCN3CCCC3)cc(C(F)(F)F)n2)[nH]c2ccccc12 | – | – | – | 54.4% | –
CC(=O)c1c(-c2nc(NCCN(C)C)c3cccnc3n2)[nH]c2ccccc12 | – | – | – | 22.4% | –
CC(=O)c1c(-c2nc3c(c(NCCN(C)C)n2)CNCC3)[nH]c2ccccc12 | – | – | – | 25.1% | –
CC(=O)c1c(-c2nc(C)c(C)c(NCCCN(C)C)n2)[nH]c2ccccc12 | 60 | 0.509 µM | 30.4 µM | 92.1% | –
CCc1cc(NCCCN(C)C)nc(-c2[nH]c3ccccc3c2C(C)=O)n1 | – | – | – | 73.8% | –
CC(=O)c1c(-c2nc3c(c(NCCN4CCCC4)n2)CCCC3)[nH]c2ccccc12 | – | – | – | 20.5% | –
CC(=O)c1c(-c2nc(NCCN(C)C)c3ccccc3n2)[nH]c2ccccc12 | 81 | 0.078 µM | 6.31 µM | 100.5% | –
CC(=O)c1c(-c2nc(NCCCN(C)C)cc(-c3ccc(C(C)(C)C)cc3)n2)[nH]c2ccccc12 | – | – | – | 20.5% | –
CC(=O)c1c(-c2nccc(NCCN(C)C)n2)[nH]c2ccccc12 | 112 | 0.254 µM | 28.4 µM | 103.9% | –
CC(=O)c1c(-c2nc(NCCCN(C)C)cc(-c3ccccc3)n2)[nH]c2ccccc12 | – | – | – | 26.9% | –
CC(=O)c1c(-c2nc3c(c(NCCN(C)C)n2)COC3)[nH]c2ccccc12 | – | – | – | 46.9% | –
CC(=O)c1c(-c2nccc(NCCCN(C)C)n2)[nH]c2ccccc12 | – | – | – | 79.5% | –
CC(=O)c1c(-c2ncc(C)c(NCCN3CCCC3)n2)[nH]c2ccccc12 | 212 | 0.111 µM | 23.4 µM | 99.8% | –
CC1=C(O)C(=O)C=C2C1=CC=C1[C@@]2(C)CC[C@@]2(C)[C@@H]3C[C@](C)(C(=O)O)CC[C@]3(C)CC[C@]12C [CELASTROL] | 7 | 0.099 µM | 0.73 µM | – | –
